In PubChem BioAssay AID1963426 (Molecular Pharmacology Branch, DTP, NCI, 2024):
Several values for one entry are separate records, joined by “and”; a condition that tells them apart may be missing. Equal entries are not always repeated.

Tested on: 186277-243-T-J2-PDC complex spheroid growth, % test/control
Assay: Anticancer human tumor 186277-243-T-J2-PDC patient-derived colon adenocarcinoma cell line growth inhibition [Asc]
Details: for viability, T/C: stronger effect = lower value
Protocol: Multicellular complex tumor spheroid response to apoptosis pathway targeting inhibitors Alrizomadlin, Pelcitoclax, and Dasminapant in combination with a variety of drugs and investigational agents in selected tumor cell lines
The MDM2 inhibitor alrizomadlin, the Bcl-2/Bcl-xL inhibitor pelcitoclax, and the IAPs inhibitor dasminapant were evaluated both individually and in combination with standard of care and investigational anticancer small molecules within a complex spheroid model of solid tumors. . Complex spheroids include a stromal component modeled by human endothelial cells (HUVEC) and fibroblasts modeled by human mesenchymal stem cells (MSCs). The concentration ranges selected for each drug and investigational agent were based upon clinically achievable concentrations if the clinical Cmax of the agent was known.
Compounds. The drugs and investigational agents: alrizomadlin (APG-115; NSC831270), pelcitoclax (APG-1252; NSC835773), dasminapant (APG-1387;NSC834197), TAK-243 (NSC785004), copanlisib (NSC809693), olaparib (NSC753686), talazoparib (NSC767125), cobimetinib (NSC 768068), eltanexor (KPT-8602, NSC 794443), abemaciclib (NSC 768073), sotorasib (NSC818433), adagrasib (NSC 831453), MRTX-1133 (NSC 836407), Iadademestat (ORY1001, NSC 806812), and RMC-4630 (NSC839698), were obtained from the NCI Developmental Therapeutics Program Chemical Repository. The FDA-approved anticancer drug set is available from the Developmental Therapeutics Program at https://dtp.cancer.gov/organization/dscb/obtaining/available plates.htm. […] The stock solutions were prepared in dimethyl sulfoxide (DMSO, Sigma-Aldrich, St. Louis, MO, cat. D2650) at 800-fold the tested concentration and stored at -70 degrees C prior to their use. All drugs and investigational agents were tested over a range starting from a high concentration at or near the clinical Cmax and decreasing in half-log increments. If the clinical Cmax for an agent had not been determined, the highest concentration tested was 10 microM.
The patient-derived cancer (PDC) cell lines include five colon adenocarcinomas: 186277-243-T-J2-PDC, 616215-338-R-J1-PDC, 439559-082-T-J2-PDC, 463943-066-T-J2-PDC, and 519858-162-T-J1-PDC; three pancreatic carcinomas: 323965-272-R-J2-PDC, 521955-158-R6-J3-PDC, and 521955-158-R2-J5-PDC; two uterine sarcomas: 327498-152-R-J2-PDC and 993429-296-R-J1-PDC; two rhabdomyosarcomas: 755483-174-R-J1-PDC and 772245-204-R-J1-PDC; two soft tissue sarcomas: 126254-015-R-J1-PDC and 494315-158-R-J1-PDC; two malignant fibrous histiocytomas: 317291-083-R-J1-PDC and 596521-263-R-J1-PDC; two breast carcinomas: 171881-019-R-J1-PDC and 885512-296-R-J2-PDC; and one ovarian carcinoma: 6556581-035-R-J-PDC were obtained from the NCI PDMR, (https://pdmr.cancer.gov). The established cell lines HSSY-2 synovial sarcoma (RRID:CVCL 8719), SYO-1 synovial sarcoma (RRID:CVCL_7146), MPNST malignant peripheral neural sheath tumor were obtained from the Sloan Kettering Institute. The following established cell lines were purchased from the American Type Culture Collection (ATCC, Manassas, VA), Sor the received from the NCI repository:, PANC-1 pancreatic carcinoma (CRL-1469, RRID:CVCL_0480), OVCAR-5 ovarian carcinoma (RRID:CVCL_1628), OVCAR-8 ovarian carcinoma (RRID:CVCL_1629), , MCF-7 breast carcinoma (CRL-12584, RRID:CVCL_0031), MDA-MB-231 breast carcinoma (CRL-12532, RRID:CVCL_0062), NCI-H1876 small cell lung carcinoma (CRL-5902, RRID:CVCL_1503), NCI-H510A small cell lung carcinoma (HTB-184, RRID:CVCL_1565), NCI-H1417 (CRL-5869, RRID:CVCL_1469), and NCI-H196 small cell lung carcinoma (CRL-5823, RRID:CVCL_1509). Dr. Peter Houghton (Greehey Children's Cancer Research Institute, University of Texas Health Science Center, San Antonio, TX) provided Rh-18 rhabdomyosarcoma (RRID:CVCL_1659). Pooled donor human umbilical vein endothelial cells (HUVEC, Lonza, cat. CC-2519) and human mesenchymal stem cells (hMSC, Lonza, cat. PT-2501) were purchased from Lonza (Walkersville, MD).
Cell Culture. […]

[1] = curve of first compound, second compound 0.1 µM
[2] = curve of first compound, second compound 0.316 µM
[3] = curve of first compound, second compound 1 µM
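Note: spheroids exposed to agents for 7 days.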
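Throughout, for viability, T/C: 100% = DMSO vehicle control wells.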

For CCN1C(C(=O)NC23CCC(C(=O)O)(CC2)CC3)C(c2cccc(Cl)c2F)C2(C(=O)Nc3cc(Cl)ccc32)C12CCCCC2 (configuration not stated) + Cc1c(S(C)(=O)=O)c(-c2cc(F)cc(N3CCN(c4ccc(NS(=O)(=O)c5ccc(NC(CCN6CCC(C(=O)OCCCP(=O)(O)O)CC6)CSc6ccccc6)c(S(=O)(=O)C(F)(F)F)c5)cc4)CC3)c2)c(-c2ccc(Cl)cc2)n1C(C)C, the IC50 [1] was 746 nM, the IC50 [2] was 397 nM and the IC50 [3] was 202 nM. For the same molecule, the IC50 (curve of first compound, second compound 3.16 µM) was 110 nM, the IC50 (curve of first compound, second compound 10 µM) was 97.5 nM and the viability, T/C (second compound 0.1 µM, first compound 0.00949 µM) was 103%. It also gave a viability, T/C (second compound 0.1 µM, first compound 0.03 µM) of 137%, a viability, T/C (second compound 0.1 µM, first compound 0.0949 µM) of 91.4% and a viability, T/C (second compound 0.1 µM, first compound 0.3 µM) of 73.6%. For the same molecule, the viability, T/C (second compound 0.1 µM, first compound 0.949 µM) was 47.5%, the viability, T/C (second compound 0.1 µM, first compound 3 µM) was 14% and the viability, T/C (second compound 0.316 µM, first compound 0.00949 µM) was 111%. It also gave a viability, T/C (second compound 0.316 µM, first compound 0.03 µM) of 121%, a viability, T/C (second compound 0.316 µM, first compound 0.0949 µM) of 82.6% and a viability, T/C (second compound 0.316 µM, first compound 0.3 µM) of 59.3%. For the same molecule, the viability, T/C (second compound 0.316 µM, first compound 0.949 µM) was 26.1%, the viability, T/C (second compound 0.316 µM, first compound 3 µM) was 1.1% and the viability, T/C (second compound 1 µM, first compound 0.00949 µM) was 107%. It also gave a viability, T/C (second compound 1 µM, first compound 0.03 µM) of 126%, a viability, T/C (second compound 1 µM, first compound 0.0949 µM) of 72.7% and a viability, T/C (second compound 1 µM, first compound 0.3 µM) of 38.3%. It also gave a viability, T/C (second compound 1 µM, first compound 0.949 µM) of 8.6%, a viability, T/C (second compound 1 µM, first compound 3 µM) of 1.06% and a viability, T/C (second compound 3.16 µM, first compound 0.00949 µM) of 120%. It also gave a viability, T/C (second compound 3.16 µM, first compound 0.03 µM) of 103%, a viability, T/C (second compound 3.16 µM, first compound 0.0949 µM) of 52.5% and a viability, T/C (second compound 3.16 µM, first compound 0.3 µM) of 19.8%. The viability, T/C (second compound 3.16 µM, first compound 0.949 µM) was 2.56%, the viability, T/C (second compound 3.16 µM, first compound 3 µM) was 0.36% and the viability, T/C (second compound 10 µM, first compound 0.00949 µM) was 107%. For the same molecule, the viability, T/C (second compound 10 µM, first compound 0.03 µM) was 110%, the viability, T/C (second compound 10 µM, first compound 0.0949 µM) was 49.7% and the viability, T/C (second compound 10 µM, first compound 0.3 µM) was 13.4%. It also gave a viability, T/C (second compound 10 µM, first compound 0.949 µM) of 3.44% and a viability, T/C (second compound 10 µM, first compound 3 µM) of 0.38%.
In the case of NC(=O)C(=Cn1cnc(-c2cc(C(F)(F)F)cc(C(F)(F)F)c2)n1)c1cncnc1, the viability, T/C (compound 0.000949 µM) is reported as 99.3% and 89.8% and 97.7%, the viability, T/C (compound 0.003 µM) is reported as 80.2% and 78.8% and 94.8% and the viability, T/C (compound 0.00949 µM) is reported as 96.9% and 100% and 103%. The viability, T/C (compound 0.03 µM) was 96.2% and 77.8% and 106%, the viability, T/C (compound 0.0949 µM) was 81.6% and 71.7% and 101% and the viability, T/C (compound 0.3 µM) was 12.6% and 11.8% and 30.5%. For the same molecule, the IC50 (curve of compound) was 161 nM and 141 nM and 218 nM.
C=C(F)C(=O)N1CCN(c2nc(OCC3CCCN3C)nc3c2CCN(c2cccc4cccc(Cl)c24)C3)CC1CC#N (configuration not stated) + CNC(C)C(=O)NC1CN(S(=O)(=O)c2cccc(S(=O)(=O)N3CCC4CCC(C(=O)NC(c5ccccc5)c5ccccc5)N4C(=O)C(NC(=O)C(C)NC)C3)c2)CCC2CCC(C(=O)NC(c3ccccc3)c3ccccc3)N2C1=O gave an IC50 (curve of first compound, second compound 0.01 µM) of 8070 nM, an IC50 (curve of first compound, second compound 0.0316 µM) of 7280 nM and an IC50 [1] of 6660 nM. For the same molecule, the IC50 [2] was 6860 nM, the IC50 [3] was 6260 nM and the viability, T/C (second compound 0.01 µM, first compound 0.0316 µM) was 133%. The viability, T/C (second compound 0.01 µM, first compound 0.1 µM) was 122%, the viability, T/C (second compound 0.01 µM, first compound 0.316 µM) was 117% and the viability, T/C (second compound 0.01 µM, first compound 1 µM) was 112%. It also gave a viability, T/C (second compound 0.01 µM, first compound 3.16 µM) of 121%, a viability, T/C (second compound 0.01 µM, first compound 10 µM) of 33.9% and a viability, T/C (second compound 0.0316 µM, first compound 0.0316 µM) of 108%. The viability, T/C (second compound 0.0316 µM, first compound 0.1 µM) was 109%, the viability, T/C (second compound 0.0316 µM, first compound 0.316 µM) was 99.2% and the viability, T/C (second compound 0.0316 µM, first compound 1 µM) was 102%. It also gave a viability, T/C (second compound 0.0316 µM, first compound 3.16 µM) of 117%, a viability, T/C (second compound 0.0316 µM, first compound 10 µM) of 28.2% and a viability, T/C (second compound 0.1 µM, first compound 0.0316 µM) of 108%. For the same molecule, the viability, T/C (second compound 0.1 µM, first compound 0.1 µM) was 109%, the viability, T/C (second compound 0.1 µM, first compound 0.316 µM) was 120% and the viability, T/C (second compound 0.1 µM, first compound 1 µM) was 119%. For the same molecule, the viability, T/C (second compound 0.1 µM, first compound 3.16 µM) was 131%, the viability, T/C (second compound 0.1 µM, first compound 10 µM) was 13.1% and the viability, T/C (second compound 0.316 µM, first compound 0.0316 µM) was 127%. The viability, T/C (second compound 0.316 µM, first compound 0.1 µM) was 120%, the viability, T/C (second compound 0.316 µM, first compound 0.316 µM) was 104% and the viability, T/C (second compound 0.316 µM, first compound 1 µM) was 118%. For the same molecule, the viability, T/C (second compound 0.316 µM, first compound 3.16 µM) was 132%, the viability, T/C (second compound 0.316 µM, first compound 10 µM) was 15.8% and the viability, T/C (second compound 1 µM, first compound 0.0316 µM) was 113%. The viability, T/C (second compound 1 µM, first compound 0.1 µM) was 102%, the viability, T/C (second compound 1 µM, first compound 0.316 µM) was 117% and the viability, T/C (second compound 1 µM, first compound 1 µM) was 108%. For the same molecule, the viability, T/C (second compound 1 µM, first compound 3.16 µM) was 118% and the viability, T/C (second compound 1 µM, first compound 10 µM) was 7.88%.
